Reference: patent US20220175793A1, “THE USE OF AN MGLUR5 ANTAGONIST FOR TREATING OPIOID ANALGESIC TOLERANCE” (NOVARTIS AG, priority 2019, published 2022)

Test system: morphine tolerant mice
Assay: Opiate tolerance test (hot plate) in the mouse
Assay type: in vivo
Conditions: for foot-licking latency, change as compared with animals receiving morphine from Day 1 to Day 6: morphine 32 mg/kg i.p. twice daily Day 1 to Day 6, hot plate 54° C.
Experimental: The method, which detects tolerance to analgesic activity, follows that described by Fernandes et al (Naunyn-Schmiedeberg's Arch. Pharmacol., 297, 53-60, 1977).
Mice were placed onto a hot metal plate maintained at 54° C. surrounded by a Plexiglas cylinder (height: 13 cm; diameter: 19 cm) (Bioseb: model PE34). The latency to the first foot-lick was measured (maximum: 30 seconds). Morphine (32 mg/kg i.p.) or vehicle were administered twice daily for 6 days (at about 9:00 and 15:00), and then administered with morphine 8 mg/kg i.p. (or saline) 30 minutes before the test on Day 7 to assess morphine tolerance.
The test substances were each evaluated at 3 doses (1, 3 and 10 mg/kg for Compound (I) and 0.3, 1 and 3 mg/kg for Compound (II), administered in morphine tolerant mice p.o. acutely 60 minutes before the test on Day 7. The experiment included appropriate control groups to assess the potential effects of the test substances on morphine tolerance. Compound (III) was evaluated at 1 dose (10 mg/kg), administered under the same experimental conditions and was used as comparison substance.
10 mice were studied per group. The test was performed blind. Data were analysed by comparing treated groups with appropriate controls using unpaired Student's t tests.

[1] = 10 mg/kg p.o. acutely 60 minutes before the test on Day 7
[2] = 1 mg/kg p.o. acutely 60 minutes before the test on Day 7
[3] = 3 mg/kg p.o. acutely 60 minutes before the test on Day 7

Cc1cccc(C#Cc2ccccc2)n1 [Compound (III), 2-methyl-6-(phenylethynyl)pyridine, reference compound]
expression of morphine tolerance (conclusion) (10 mg/kg p.o. acutely): significantly decrease the expression of morphine tolerance
foot-licking latency, change as compared with animals receiving morphine from Day 1 to Day 6 [1]: +32%

COCc1cn(C2=NCC(=O)N3CCc4c(ccc(F)c4C4CC4)C3=C2)cn1 [Compound (II), 9-cyclopropyl-10-fluoro-2-(4-(methoxymethyl)-1H-imidazol-1-yl)-7,8-dihydro-[1,4]diazepino[7,1-a]isoquinolin-5(4H)-one]
foot-licking latency, change as compared with animals receiving morphine from Day 1 to Day 6 (0.3 mg/kg p.o. acutely 60 minutes before the test on Day 7): no effects
foot-licking latency, change as compared with animals receiving morphine from Day 1 to Day 6 [2]: +37%
expression of morphine tolerance (conclusion) (3 mg/kg p.o. acutely): significantly decrease the expression of morphine tolerance
foot-licking latency, change as compared with animals receiving morphine from Day 1 to Day 6 [3]: +38%

COC(=O)N1CC[C@@H]2[C@H]1CCC[C@@]2(O)C#Cc1cccc(C)c1 [Compound (I), (−)-(3aR,4S,7aR)-4-Hydroxy-4-m-tolylethynyl-octahydro-indole-1-carboxylic acid methyl ester]
expression of morphine tolerance (conclusion) (1 mg/kg p.o. acutely): significantly decrease the expression of morphine tolerance
foot-licking latency, change as compared with animals receiving morphine from Day 1 to Day 6 [2]: +44%
foot-licking latency, change as compared with animals receiving morphine from Day 1 to Day 6 [3]: no significant effects
foot-licking latency, change as compared with animals receiving morphine from Day 1 to Day 6 [1]: no significant effects
